Measured values reported in patent US20030040012A1, “Method of detecting protein-protein interaction” (priority 2000, published 2003).

Tests used:
Format in all cases: cell-based
Npw38 = experiment: Npw38-NpwBP binding detection by intracellular localization of GFP fluorescence in COS7 cells; details: co-introduced with Npw38 expression vector, fluorescence microscopy
Protocol: (§1) Monkey kidney-derived, cultured cell COS7 was incubated in a 10% fetal calf serum-containing Dulbecco's modified Eagle's medium (DMEM) in the presence of 5% CO2 at 37° C. COS7 cells of 1=10^5 were placed in a 6-well plate (from Nunk, having a well diameter of 3 cm), and further incubated therein in the presence of 5% CO2 at 37° C. for 22 hours. After the medium was removed, the cell sur were washed with a phosphate buffer solution (PBS), and then further washed with a 50 mM Tris-HCl (pH 7.5)-containing DMEM. To these cells, added was a suspension comprising 1 μl of a plasmid suspension, 0.6 ml of DMEM and 3 μl of TRANSFECTAM™ (from IBF), and incubated in the presence of 5% CO2 at 37° C. for 12 hours. Then, the cells were washed with PBS, and fixed with 4% peraformaldehyde-containing PBS at room temperature for 10 minutes. The thus-fixed cells were washed with PBS, then treated with 0.2% Triton X-100, and thereafter blocked with 5% milk PBS. This was reacted with an anti-HA antibody for 45 minutes, then washed with PBS, and reacted with a rhodamine-binding secondary antibody for 45 minutes.
Fusion protein HA-Npw38 (A. Komuro et al., J. Biol. Chem., 274: 36513-36519, 1999) was used. This is a fusion protein A-X in which X is Npw38 and A is HA tag. […] Also used were fusion proteins NpwBP(P1)-GFP and NpwBP(P2)-GFP. These are fusion proteins Y-B in which Y is a proline-rich region of NpwBP and B is GFP. In these, P1 contains amino acid residues of from 190th valine to 210th glutamine in SEQ ID NO: 2; and P2 contains amino acid residues of from 401st glutamine to 541st isoleucine in Seq ID NO: 2.
First, pKA1-NpwBP(P1)-GFP or pKA1-NpwBP(P2)-GFP was singly introduced into COS7 cells, and the localization of these fusion proteins in the cells was checked through fluorescence microscopy based on the green fluorescence of GFP as the index thereof. […] In this stage, the cells were immunostained with an antibody against the tag to check the localization of the fusion protein HA-Npw38. This verified the localization of the fusion protein in the nucleus of each cell (FIG. 3c).

NpwBP(P2)-Bcl-XL = target: T1, NpwBP(P2)-Bcl-XL (Homo sapiens, UniProt Q07817+Q9Y2W2); experiment: Application of mitochondrial localization signal: co-expression with NpwBP(P2)-Bcl-XL in COS7 cells; details: mitochondrial region detected with anti-human mitochondrial antibody
T1 construct: expressed in transfected cells; host or cells: COS7 (monkey kidney)
Protocol: as §1, with “45 minutes. […]” for “45 minutes.”
However, when the fusion protein NpwBP(P2)Bcl-XL was co-expressed therein, the mitochondrial region of each cell also gave the fluorescence (FIG. 4). The mitochondrial region in each cell was detected through immunostaining with an anti-human mitochondrial antibody (Leinco Technologies, Inc.). […]

NpwBP = target: T2, NpwBP (Homo sapiens, UniProt Q9Y2W2); experiment: Contrary system: NpwBP co-expressed with Npw38(ΔC)-GFP in COS7 cells, GFP localization
T2 construct: expressed in transfected cells; host or cells: COS7 (monkey kidney)
T2 sequence (Q9Y2W2 1-641): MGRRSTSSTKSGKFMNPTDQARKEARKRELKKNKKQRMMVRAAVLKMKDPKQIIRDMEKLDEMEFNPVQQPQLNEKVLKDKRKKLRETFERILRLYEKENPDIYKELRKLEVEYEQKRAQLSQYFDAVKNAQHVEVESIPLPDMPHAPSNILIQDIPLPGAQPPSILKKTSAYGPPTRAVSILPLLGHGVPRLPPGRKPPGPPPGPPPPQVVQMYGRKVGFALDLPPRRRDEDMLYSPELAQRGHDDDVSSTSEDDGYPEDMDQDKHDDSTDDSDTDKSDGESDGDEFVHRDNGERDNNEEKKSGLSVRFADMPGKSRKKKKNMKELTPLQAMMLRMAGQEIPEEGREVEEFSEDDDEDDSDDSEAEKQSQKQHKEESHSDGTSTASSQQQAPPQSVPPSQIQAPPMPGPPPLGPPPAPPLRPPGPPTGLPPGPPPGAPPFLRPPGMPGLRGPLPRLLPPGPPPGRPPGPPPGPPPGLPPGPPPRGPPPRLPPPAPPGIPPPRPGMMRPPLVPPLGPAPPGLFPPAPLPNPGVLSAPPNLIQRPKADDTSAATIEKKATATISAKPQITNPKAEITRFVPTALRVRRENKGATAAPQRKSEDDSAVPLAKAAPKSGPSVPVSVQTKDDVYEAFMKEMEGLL
Protocol: as §1
Systems contrary to those in the above (3) were tried.

T1 sequence (Q9Y2W2+Q07817 fused): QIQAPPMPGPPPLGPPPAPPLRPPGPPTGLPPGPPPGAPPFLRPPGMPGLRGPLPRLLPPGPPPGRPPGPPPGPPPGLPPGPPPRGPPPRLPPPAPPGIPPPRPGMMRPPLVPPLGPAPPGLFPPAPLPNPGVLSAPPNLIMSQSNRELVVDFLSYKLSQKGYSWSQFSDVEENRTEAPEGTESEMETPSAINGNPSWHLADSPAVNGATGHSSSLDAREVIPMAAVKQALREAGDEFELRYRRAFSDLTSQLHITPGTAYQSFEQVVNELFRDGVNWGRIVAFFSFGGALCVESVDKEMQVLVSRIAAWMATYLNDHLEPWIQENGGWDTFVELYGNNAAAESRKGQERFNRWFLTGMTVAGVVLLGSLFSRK

NpwBP(P1)-GFP: fusion protein of proline-rich region P1 of NpwBP (residues 190-210 of SEQ ID NO: 2) and GFP
localization of the green fluorescence on co-expression with Npw38 (Npw38): localized in the nucleus

GFP: green fluorescent protein, expressed in place of NpwBP-GFP as control [reference compound]
localization of the green fluorescence on co-expression with Npw38 (Npw38): no intranuclear localization

Npw38(ΔC)-GFP: fusion protein in which the nuclear localization signal in Npw38 was deleted, fused to GFP
localization of the fluorescence on co-expression with NpwBP(P2)-Bcl-XL (NpwBP(P2)-Bcl-XL): localized also in the mitochondrial region
localization of the green fluorescence on co-expression with NpwBP (NpwBP): move in the nucleus

NpwBP(P2)-GFP: fusion protein of proline-rich region P2 of NpwBP (residues 401-541 of SEQ ID NO: 2) and GFP
localization of the green fluorescence on co-expression with Npw38 (Npw38): localized in the nucleus
